Positions count from the first letter of the chain named.

The term GI50 denotes the concentration at which growth is held to half of that of the control. In general, DC50 refers to the concentration at which degradation of the target reaches its halfway point.

Type in all cases: cell-based
One experiment deals with RAMOS cells. The experiment can be described thus: Cell growth inhibition for Ramos cells (CellTiter-Glo). The note with it: Homo sapiens, 72 h; RAMOS cell line, 3 days after administration. As to the method: RAMOS cells (ATCC) were seeded in 96-well plates at 16,000 cell/well in 90 μl of RPMI growth medium containing 10% Heat-Inactivated Fetal Bovine Serum and 1% Penicillin/Streptomycin. The test compound was administered to the cells by using 10× compound stock solution prepared in growth medium at various concentrations. After administration of the compound, cells were then incubated at 37° C. for 3 days. Before CellTiter-Glo assay, the plates were equilibrated at room temperature for approximately 10 minutes. 100 ul of CellTiter-Glo® Reagent (Promega) was added to each well. The plates were then incubated at room temperature for 10 minutes and luminescence was recorded by EnSpire plate reader (PerkinElmer).
(§1) Table 4 summarizes the androgen receptor (AR) degradative activity and cell growth inhibition of exemplary compounds in (a) LNCAP, VCAP, and 22Rv1 cell lines 24 hours after administration of the compound; (b) RAMOS cell line 3 days after administration of the compound; and (c) VCAP cell line 6 days after administration of the compound. DC50: compound concentration needed for 50% target protein degradation.
Background: In ATP-based viability assays light output follows the ATP content of the culture.

Experiment [1] deals with T1, androgen receptor (AR) (Homo sapiens, UniProt P10275).
T1 construct: endogenous in cells; host or cells: VCAP
T1 sequence (P10275 1-920): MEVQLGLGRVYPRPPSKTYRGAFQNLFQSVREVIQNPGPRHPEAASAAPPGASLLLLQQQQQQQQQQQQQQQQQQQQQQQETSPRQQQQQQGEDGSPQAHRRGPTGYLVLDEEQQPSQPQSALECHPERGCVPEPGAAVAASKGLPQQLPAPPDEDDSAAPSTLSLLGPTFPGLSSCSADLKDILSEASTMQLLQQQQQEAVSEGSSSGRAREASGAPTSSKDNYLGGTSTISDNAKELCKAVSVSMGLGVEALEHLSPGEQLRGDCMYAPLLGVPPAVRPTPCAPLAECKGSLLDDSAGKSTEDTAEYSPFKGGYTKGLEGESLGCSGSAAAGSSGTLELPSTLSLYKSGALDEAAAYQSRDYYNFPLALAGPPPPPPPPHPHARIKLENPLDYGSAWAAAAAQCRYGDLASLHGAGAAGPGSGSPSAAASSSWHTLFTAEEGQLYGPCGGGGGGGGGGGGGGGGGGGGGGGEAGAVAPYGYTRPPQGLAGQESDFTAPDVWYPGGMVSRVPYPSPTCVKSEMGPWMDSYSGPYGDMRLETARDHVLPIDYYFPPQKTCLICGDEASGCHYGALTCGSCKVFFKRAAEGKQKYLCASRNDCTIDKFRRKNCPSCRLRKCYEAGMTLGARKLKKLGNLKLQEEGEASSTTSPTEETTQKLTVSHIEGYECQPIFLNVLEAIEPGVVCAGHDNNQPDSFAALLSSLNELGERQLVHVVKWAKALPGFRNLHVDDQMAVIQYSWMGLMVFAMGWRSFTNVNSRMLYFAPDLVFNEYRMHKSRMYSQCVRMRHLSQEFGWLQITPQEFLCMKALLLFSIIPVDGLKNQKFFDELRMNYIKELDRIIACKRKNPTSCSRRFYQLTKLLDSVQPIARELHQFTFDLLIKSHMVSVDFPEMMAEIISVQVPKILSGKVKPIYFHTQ
Put plainly: AR degradation activity in VCAP cells (Western blot). The note with it: VCAP cell line, 24 hours after administration; DC50 = concentration for 50% target protein degradation. As to the method:
(§2) LNCAP, VCAP and 22Rv1 cells were plated in 24-well plates at 1.5×10E5 cells/well in the RPMI growth medium containing 10% FBS and 1% Penicillin Streptomycin, and then incubated at 37° C. overnight. The following day, the test compound was administered to the cells by using 1000× compound stock solution prepared in DMSO at various concentrations. After administration of the compound, the cells were then incubated at 37° C. for 24 hours. Upon completion, the cells were washed with PBS and protein was collected in Laemmli sample buffer (1×; VWR International). Proteins in cell lysate were separated by SDS-PAGE and transferred to Odyssey nitrocellulose membranes (Licor) with iblot® dry blotting transfer system (ThermoFisher). Nonspecific binding was blocked by incubating membranes with Intercept Blocking Buffer (Licor) for 1 hour at room temperature with gentle shaking. The membranes were then incubated overnight at 4° C. with Primary antibodies rabbit anti-AR (1:1,000, Cell Signaling, 5153) and mouse anti-GAPDH (1:5,000, Santa Cruz Biotechnology, sc-47724) diluted in Intercept Blocking Buffer containing 0.1% Tween 20. After washing 3 times with TBS-T, the membranes were incubated with IRDye® […] goat anti-mouse IgG (1:20,000, Licor) or IRDye®8000W goat anti-rabbit IgG (1:20,000, Licor) for 1 hour. After TBS-T washes, membranes were rinsed in TBS and scanned on Odyssey® CLx Imaging System (Licor). The bands were quantified using Image Studio™ Software (Licor).
as §1

Experiment [2] has as its system androgen receptor (AR). Put plainly: AR degradation activity in 22Rv1 cells (Western blot). To be noted: 22Rv1 cell line, 24 hours after administration; DC50 = concentration for 50% target protein degradation. The procedure: as §2, §1
In experiment [3] the target is T2, androgen receptor (AR) (Homo sapiens, UniProt P10275, T878A).
T2 construct: endogenous in cells; host or cells: LNCAP
T2 sequence (P10275 1-920 T878A): T1 sequence (P10275 1-920) with T878A
Put plainly: AR degradation activity in LNCAP cells (Western blot). To be noted: LNCAP cell line, 24 hours after administration; DC50 = concentration for 50% target protein degradation. The procedure: as §2, §1

In the next experiment the test system is VCAP cells. The experiment can be described thus: Cell growth inhibition for VCAP cells (CellTiter-Glo). The note with it: Homo sapiens, 144 h; VCAP cell line, 6 days after administration, 0.1 nM R1881, charcoal-stripped FBS. As to the method: VCAP cells (ATCC) were seeded in 96-well plates at 3000 cell/well in 80 μl of DMEM growth medium containing 10% charcoal-stripped FBS (CSS) and 1% Penicillin/Streptomycin. Cells were incubated at 37° C. overnight. The following day, the test compound was administered to the cells by using 10× compound stock solution prepared in growth medium at various concentrations. Four hours later, 0.1 nM R1881 (Sigma) was administered to the cells by using 10× compound stock solution prepared in growth medium. 0.1% DMSO with or without 0.1 nM R1881 was administered as control. Cells were then incubated at 37° C. for 6 days. Before CelTiter-Glo assay, the plates were equilibrated at room temperature for approximately 10 minutes. 100 ul of CellTiter-Glo® Reagent (Promega) was added to each well. The plates were then incubated at room temperature for 10 minutes and luminescence was recorded by EnSpire plate reader (PerkinElmer).
as §1

In the case of `CC1(C)C(NC(=O)c2ccc(N3CCC(CN4CCN(c5ccc6c(c5)C(=O)N(C5CCC(=O)NC5=O)C6=O)CC4)CC3)cc2)C(C)(C)C1Oc1ccc(C#N)c2ncccc12` (stereo not drawn) [Compound 2-21, N-(1,3-trans)-3-((8-cyanoquinolin-5-yl)oxy)-2,2,4,4-tetramethylcyclobutyl)-4-(4-((4-(2-(2,6-dioxopiperidin-3-yl)-1,3-dioxoisoindolin-5-yl)piperazin-1-yl)methyl)piperidin-1-yl)benzamide], the GI50 was over 3000 nM in the experiment on RAMOS cells and 18 nM with VCAP cells. Further, the results for the DC50 on androgen receptor (AR) [1], in the experiment on androgen receptor (AR) [2] and at androgen receptor (AR) [3] were 1.2 nM, 0.9 nM and 2.2 nM, respectively.
Turning to `CC1(C)[C@H](NC(=O)c2ccc(N3CCC(CN4CCN(c5ccc6c(c5)C(=O)N(C5CCC(=O)NC5=O)C6=O)CC4)CC3)c(F)c2)C(C)(C)[C@H]1Oc1ccc(C#N)c2ncccc12` (stereo partly drawn) [Compound 2-22], the DC50 on androgen receptor (AR) [1] is 1.7 nM; in the experiment with androgen receptor (AR) [2] it was 2.8 nM; at androgen receptor (AR) [3], 1 nM. In the experiment with VCAP cells, the GI50 was determined as 8 nM.
For `CC1(C)C(NC(=O)c2ccc(N3CCC(CN4CCN(c5ccc6c(c5)CN([C@H]5CCC(=O)NC5=O)C6=O)CC4)CC3)nc2)C(C)(C)C1Oc1ccc(C#N)c2ncccc12` (stereo partly drawn) [Compound 2-29], the figures for the 50% growth inhibitory concentration (GI50) in the experiment on RAMOS cells and in the experiment with VCAP cells were over 3000 nM and 2.1 nM, respectively. The DC50 was found to be 0.13 nM in the experiment on androgen receptor (AR) [2] and 0.1 nM at androgen receptor (AR) [3].
Regarding `CC1(C)C(NC(=O)c2ccc(N3CCC(CN4CCN(c5ccc6c(c5)CN([C@H]5CCC(=O)NC5=O)C6=O)CC4)CC3)c(F)c2)C(C)(C)C1Oc1ccc(C#N)c2ncccc12` (stereo partly drawn) [Compound 2-32], the GI50 with RAMOS cells was over 3000 nM; in the experiment with VCAP cells it was 5.7 nM. The DC50 came out at 0.3 nM at androgen receptor (AR) [1], 0.25 nM with androgen receptor (AR) [2] and 0.1 nM at androgen receptor (AR) [3].
As to `CC1(C)C(NC(=O)c2ccc(N3CCC(CCN4CCN(c5ccc6c(c5)C(=O)N(C5CCC(=O)NC5=O)C6=O)CC4)CC3)cc2)C(C)(C)C1Oc1ccc(C#N)c2ncccc12` (stereo not drawn) [Compound 2-43, N-(1,3-trans)-3-((8-cyanoquinolin-5-yl)oxy)-2,2,4,4-tetramethylcyclobutyl)-4-(4-(2-(4-(2-(2,6-dioxopiperidin-3-yl)-1,3-dioxoisoindolin-5-yl)piperazin-1-yl)ethyl)piperidin-1-yl)benzamide], the GI50 in the experiment with RAMOS cells was over 3000 nM; with VCAP cells, 31.2 nM. Besides, the DC50 worked out at 1.8 nM on androgen receptor (AR) [1] and 2 nM on androgen receptor (AR) [3].
Regarding `CC1(C)[C@H](NC(=O)c2ccc(N3CCC(CN4CCN(c5ccc6c(c5)CN([C@H]5CCC(=O)NC5=O)C6=O)CC4)CC3)cc2)C(C)(C)[C@H]1Oc1ccc(C#N)c2ncccc12` [Compound 2-49, N-((1,3-trans)-3-((8-cyanoquinolin-5-yl)oxy)-2,2,4,4-tetramethylcyclobutyl)-4-(4-((4-(2-((S)-2,6-dioxopiperidin-3-yl)-1-oxoisoindolin-5-yl)piperazin-1-yl)methyl)piperidin-1-yl)benzamide], the GI50 is over 3000 nM with RAMOS cells and 8.2 nM with VCAP cells. The DC50 at androgen receptor (AR) [1], in the experiment with androgen receptor (AR) [2] and on androgen receptor (AR) [3] was 0.4 nM in each case.

The record behind these values is patent US11312702B2, “Substituted quinoline-8-carbonitrile derivatives having androgen receptor degradation activity and uses thereof” (ACCUTAR BIOTECHNOLOGY INC., priority 2019, dated 2022).
